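How tested: cells in 96-well plates exposed to compound for 48 hours at five concentrations. Here, GI50 denotes the concentration required for 50% inhibition of growth.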 The source made the active and inactive calls. No stated cut-off is given here; in the data, active = GI50 up to about 1.1 µM and inactive = higher.
Legend:
Experiment in all cases: growth of human tumour cells (NCI), 48 h
SF-295 = system: SF-295
OVCAR-3 = system: OVCAR-3
NCI/ADR-RES = system: NCI/ADR-RES
HT-29 = system: HT-29
MDA-MB-435 = system: MDA-MB-435
BT-549 = system: BT-549
HOP-62 = system: HOP-62
SK-MEL-2 = system: SK-MEL-2
SR = system: SR
RPMI-8226 = system: RPMI-8226
MOLT-4 = system: MOLT-4
SF-539 = system: SF-539
SK-MEL-28 = system: SK-MEL-28
NCI-H522 = system: NCI-H522
CCRF-CEM = system: CCRF-CEM
IGROV-1 = system: IGROV-1
SW-620 = system: SW-620
HOP-92 = system: HOP-92
SF-268 = system: SF-268
U-251 = system: U-251
SNB-19 = system: SNB-19
A498 = system: A498
Hs-578T = system: Hs-578T
A549 = system: A549
OVCAR-5 = system: OVCAR-5
RXF 393 = system: RXF 393
NCI-H23 = system: NCI-H23
UACC-257 = system: UACC-257
UACC-62 = system: UACC-62
COLO 205 = system: COLO 205
OVCAR-4 = system: OVCAR-4
SK-OV-3 = system: SK-OV-3
HCT-116 = system: HCT-116
MDA-MB-231 = system: MDA-MB-231
Malme-3M = system: Malme-3M
HL-60 = system: HL-60
EKVX = system: EKVX
NCI-H460 = system: NCI-H460
MCF7 = system: MCF7
SK-MEL-5 = system: SK-MEL-5
MDA-N = system: MDA-N
ACHN = system: ACHN
SNB-75 = system: SNB-75
CAKI-1 = system: CAKI-1
NCI-H226 = system: NCI-H226
DU-145 = system: DU-145
KM12 = system: KM12
PC-3 = system: PC-3
K562 = system: K562
786-0 = system: 786-0
T47D = system: T47D
M14 = system: M14
UO-31 = system: UO-31
HCT-15 = system: HCT-15
LOX IMVI = system: LOX IMVI
SN12C = system: SN12C
OVCAR-8 = system: OVCAR-8
TK-10 = system: TK-10
HCC 2998 = system: HCC 2998

For OCC1OC(c2scc3c(=S)[nH]cnc23)C(O)C1O (stereo unspecified), the GI50 (SF-295) was 29 µM (inactive), the GI50 (OVCAR-3) was 2.19 µM (inactive) and the GI50 (NCI/ADR-RES) was 3.05 µM (inactive). The GI50 (HT-29) was 5.12 µM (inactive), the GI50 (MDA-MB-435) was 20.4 µM (inactive) and the GI50 (BT-549) was 27.5 µM (inactive). The GI50 (HOP-62) was 10.7 µM (inactive), the GI50 (SK-MEL-2) was 13.4 µM (inactive) and the GI50 (SR) was 29.1 µM (inactive). For the same molecule, the GI50 (RPMI-8226) was 9.31 µM (inactive), the GI50 (MOLT-4) was 4.25 µM (inactive) and the GI50 (SF-539) was 8.81 µM (inactive). The GI50 (SK-MEL-28) was 74 µM (inactive), the GI50 (NCI-H522) was 15.8 µM (inactive) and the GI50 (CCRF-CEM) was 20.8 µM (inactive). The GI50 (IGROV-1) was 9.62 µM (inactive), the GI50 (SW-620) was 6.76 µM (inactive) and the GI50 (HOP-92) was 0.796 µM (active). For the same molecule, the GI50 (SF-268) was 21.2 µM (inactive), the GI50 (U-251) was > 93.3 µM (inactive) and the GI50 (SNB-19) was 72.3 µM (inactive). The GI50 (A498) was 6.84 µM (inactive), the GI50 (Hs-578T) was 1.77 µM (inactive) and the GI50 (A549) was 31.7 µM (inactive). For the same molecule, the GI50 (OVCAR-5) was 26.1 µM (inactive), the GI50 (RXF 393) was 11.9 µM (inactive) and the GI50 (NCI-H23) was 21 µM (inactive). The GI50 (UACC-257) was 42.4 µM (inactive), the GI50 (UACC-62) was 8.65 µM (inactive) and the GI50 (COLO 205) was 11.2 µM (inactive). The GI50 (OVCAR-4) was 4.01 µM (inactive), the GI50 (SK-OV-3) was 2.54 µM (inactive) and the GI50 (HCT-116) was 5.3 µM (inactive). For the same molecule, the GI50 (MDA-MB-231) was 4.61 µM (inactive), the GI50 (Malme-3M) was 15.8 µM (inactive) and the GI50 (HL-60) was 3.63 µM (inactive). For the same molecule, the GI50 (EKVX) was 76.2 µM (inactive), the GI50 (NCI-H460) was 8.22 µM (inactive) and the GI50 (MCF7) was 2.8 µM (inactive). The GI50 (SK-MEL-5) was 22.7 µM (inactive), the GI50 (MDA-N) was 15 µM (inactive) and the GI50 (ACHN) was 4.84 µM (inactive). For the same molecule, the GI50 (SNB-75) was 2.32 µM (inactive), the GI50 (CAKI-1) was 6.59 µM (inactive) and the GI50 (NCI-H226) was 16 µM (inactive). For the same molecule, the GI50 (DU-145) was 0.859 µM (active), the GI50 (KM12) was 24.5 µM (inactive) and the GI50 (PC-3) was 2.53 µM (inactive). For the same molecule, the GI50 (K562) was 13.6 µM (inactive), the GI50 (786-0) was 8.99 µM (inactive) and the GI50 (T47D) was 0.82 µM (active). The GI50 (M14) was 6.53 µM (inactive), the GI50 (UO-31) was 6.08 µM (inactive) and the GI50 (HCT-15) was 4.1 µM. The GI50 (LOX IMVI) was 2.86 µM (inactive), the GI50 (SN12C) was 6.15 µM (inactive) and the GI50 (OVCAR-8) was 1.24 µM (inactive). For the same molecule, the GI50 (TK-10) was 5.45 µM (inactive) and the GI50 (HCC 2998) was 7.03 µM (inactive).

In the case of CC(=O)OC/C=C\Cn1nc(Br)c(=O)[nH]c1=O, the GI50 (OVCAR-3) is reported as 9.75 µM (inactive), the GI50 (NCI/ADR-RES) is reported as 17.3 µM (inactive) and the GI50 (MDA-MB-435) is reported as 14.6 µM (inactive). For the same molecule, the GI50 (BT-549) was 9.77 µM (inactive), the GI50 (HOP-62) was 16.3 µM (inactive) and the GI50 (SK-MEL-2) was 13.1 µM (inactive). For the same molecule, the GI50 (SR) was 4.06 µM (inactive), the GI50 (RPMI-8226) was 25.9 µM (inactive) and the GI50 (SF-539) was 11.2 µM (inactive). For the same molecule, the GI50 (SK-MEL-28) was 16.4 µM (inactive), the GI50 (NCI-H522) was 2.81 µM (inactive) and the GI50 (CCRF-CEM) was 5.24 µM (inactive). The GI50 (IGROV-1) was 15 µM (inactive), the GI50 (SW-620) was 14.3 µM (inactive) and the GI50 (HOP-92) was 13 µM (inactive). The GI50 (SF-268) was 14.9 µM (inactive), the GI50 (U-251) was 10.5 µM (inactive) and the GI50 (SNB-19) was 18.7 µM (inactive). The GI50 (A498) was 19.9 µM (inactive), the GI50 (Hs-578T) was 21.5 µM (inactive) and the GI50 (A549) was 16.7 µM (inactive). The GI50 (OVCAR-5) was 17.9 µM (inactive), the GI50 (RXF 393) was 10.6 µM (inactive) and the GI50 (NCI-H23) was 15.1 µM (inactive). For the same molecule, the GI50 (UACC-257) was 15.5 µM (inactive), the GI50 (COLO 205) was 13.5 µM (inactive) and the GI50 (MDA-MB-231) was 18 µM (inactive). For the same molecule, the GI50 (Malme-3M) was 14.3 µM (inactive), the GI50 (HL-60) was 4.69 µM (inactive) and the GI50 (EKVX) was 17.4 µM (inactive). The GI50 (NCI-H460) was 13.2 µM (inactive), the GI50 (MCF7) was 11.5 µM (inactive) and the GI50 (SK-MEL-5) was 14.6 µM (inactive). The GI50 (MDA-N) was 15.6 µM (inactive), the GI50 (ACHN) was 7.87 µM (inactive) and the GI50 (SNB-75) was 15.1 µM (inactive). The GI50 (CAKI-1) was 10.7 µM (inactive), the GI50 (NCI-H226) was 12.9 µM (inactive) and the GI50 (DU-145) was 15.7 µM (inactive). The GI50 (KM12) was 15.5 µM (inactive), the GI50 (PC-3) was 13.2 µM (inactive) and the GI50 (K562) was 9.33 µM (inactive). The GI50 (T47D) was 13.9 µM (inactive), the GI50 (M14) was 14.9 µM (inactive) and the GI50 (UO-31) was 16.4 µM (inactive). For the same molecule, the GI50 (HCT-15) was 13.1 µM, the GI50 (LOX IMVI) was 6.75 µM (inactive) and the GI50 (SN12C) was 23.2 µM (inactive). For the same molecule, the GI50 (OVCAR-8) was 14.9 µM (inactive), the GI50 (TK-10) was 19.1 µM (inactive) and the GI50 (HCC 2998) was 15.7 µM (inactive).

For CC(=O)OC1CCn2c1nc1cc([N+](=O)[O-])c(C)cc12 (stereo unspecified), the GI50 (SF-295) was > 100 µM (inactive), the GI50 (OVCAR-3) was > 100 µM (inactive) and the GI50 (NCI/ADR-RES) was > 100 µM (inactive). For the same molecule, the GI50 (HT-29) was > 100 µM (inactive), the GI50 (MDA-MB-435) was > 100 µM (inactive) and the GI50 (BT-549) was > 100 µM (inactive). For the same molecule, the GI50 (SK-MEL-2) was > 100 µM (inactive), the GI50 (SR) was > 100 µM (inactive) and the GI50 (RPMI-8226) was > 100 µM (inactive). For the same molecule, the GI50 (MOLT-4) was > 100 µM (inactive), the GI50 (SF-539) was > 100 µM (inactive) and the GI50 (SK-MEL-28) was > 100 µM (inactive). For the same molecule, the GI50 (NCI-H522) was > 100 µM (inactive), the GI50 (CCRF-CEM) was > 100 µM (inactive) and the GI50 (IGROV-1) was > 100 µM (inactive). For the same molecule, the GI50 (SW-620) was > 100 µM (inactive), the GI50 (HOP-92) was > 100 µM (inactive) and the GI50 (SF-268) was > 100 µM (inactive). For the same molecule, the GI50 (U-251) was > 100 µM (inactive), the GI50 (SNB-19) was > 100 µM (inactive) and the GI50 (A498) was > 100 µM (inactive). For the same molecule, the GI50 (Hs-578T) was > 100 µM (inactive), the GI50 (A549) was > 100 µM (inactive) and the GI50 (RXF 393) was > 100 µM (inactive). For the same molecule, the GI50 (NCI-H23) was > 100 µM (inactive), the GI50 (UACC-257) was > 100 µM (inactive) and the GI50 (UACC-62) was > 100 µM (inactive). For the same molecule, the GI50 (COLO 205) was > 100 µM (inactive), the GI50 (OVCAR-4) was > 100 µM (inactive) and the GI50 (SK-OV-3) was > 100 µM (inactive). The GI50 (HCT-116) was > 100 µM (inactive), the GI50 (MDA-MB-231) was > 100 µM (inactive) and the GI50 (Malme-3M) was > 100 µM (inactive). For the same molecule, the GI50 (HL-60) was > 100 µM (inactive), the GI50 (EKVX) was > 100 µM (inactive) and the GI50 (NCI-H460) was > 100 µM (inactive). The GI50 (MCF7) was > 100 µM (inactive), the GI50 (SK-MEL-5) was > 100 µM (inactive) and the GI50 (MDA-N) was > 100 µM (inactive). For the same molecule, the GI50 (ACHN) was > 100 µM (inactive), the GI50 (SNB-75) was > 100 µM (inactive) and the GI50 (CAKI-1) was > 100 µM (inactive). The GI50 (NCI-H226) was > 100 µM (inactive), the GI50 (DU-145) was > 100 µM (inactive) and the GI50 (KM12) was > 100 µM (inactive). For the same molecule, the GI50 (PC-3) was > 100 µM (inactive), the GI50 (K562) was > 100 µM (inactive) and the GI50 (786-0) was > 100 µM (inactive). The GI50 (T47D) was > 100 µM (inactive), the GI50 (M14) was > 100 µM (inactive) and the GI50 (UO-31) was > 100 µM (inactive). For the same molecule, the GI50 (HCT-15) was over 100 µM, the GI50 (LOX IMVI) was > 100 µM (inactive) and the GI50 (SN12C) was > 100 µM (inactive). For the same molecule, the GI50 (OVCAR-8) was > 100 µM (inactive) and the GI50 (HCC 2998) was > 100 µM (inactive).

Reference: ChEMBL document CHEMBL1201862, “PubChem BioAssay data set” (2004)
